{"source": "patent US12291508B2", "about": "“Hydrazide containing nuclear transport modulators and uses thereof” (Karyopharm Therapeutics Inc., priority 2011, dated 2025)", "key": {"[1]": {"test_system": "MDA-MB-231 cells", "test": "Long-term growth assay, MDA-MB-231", "type": "cell-based", "settings": "MDA-MB-231, 1 μM, 10 days, crystal violet", "source_text": "(§1) At the end of the assay, media was removed from the cells and the remaining cells were stained with crystal violet."}, "[2]": {"test_system": "DU4475", "test": "Cell proliferation assay, DU4475", "type": "cell-based", "settings": "Homo sapiens, DU-4475; DU4475, type Lu, 72 h", "procedure": "(§2) The cells were seeded at 5×10^3 to 1.5×10^4 cells (depending on cell type) in each well of a 96-well plate in 100 μL of fresh culture medium and adherent cells were allowed to attach overnight. The stock solutions of the compounds were diluted in cell culture medium to obtain eight concentrations of each drug, ranging from 1 nM to 30 μM and DMSO at less than 1% v/v was used as a negative control. The resulting drug solutions were transferred onto the cells. After 72 h of treatment, 20 μl of CellTiter 96® AQueous reagent was added into each well of the 96-well assay plates and the plate was incubated at 37° C. for 1-4 hours in a humidified, 5% CO2 atmosphere. Then the absorbance of each well was recorded at 490 nm using a 96-well plate reader. In most cases, the assay was performed in triplicate and the results were presented as half maximal inhibitory concentration (IC50)."}, "[3]": {"test_system": "DU4475 luminal BC cells", "test": "Apoptosis marker immunoblot, DU4475", "type": "cell-based", "settings": "DU4475, 0 to 10 μM, 24 hours", "procedure": "(§3) MDA-MB-468 TNBC, DU4475 and HS578T TNBC cells were exposed to concentrations of Compound 1-3 ranging from 0 to 10 μM for 24 hours. After 24 hours, whole protein cell extracts were run on immunoblots and were exposed to antibodies against the proteins indicated in FIGS. 2A-2C."}, "[4]": {"test_system": "MDA-MB-468 cells", "test": "Anti-apoptosis and cell cycle proteins immunoblot, MDA-MB-468", "type": "cell-based", "settings": "MDA-MB-468, increasing concentrations, 24 hours"}, "[5]": {"test_system": "MDA-MB-157", "test": "Cell proliferation assay, MDA-MB-157", "type": "cell-based", "settings": "Homo sapiens; MDA-MB-157, type BaB, 72 h", "procedure": "as §2"}, "[6]": {"test_system": "MDA-MB-468 cells", "test": "Long-term growth assay, MDA-MB-468", "type": "cell-based", "settings": "MDA-MB-468, 1 μM, 10 days, crystal violet", "source_text": "as §1"}, "[7]": {"test_system": "HCC-1143", "test": "Cell proliferation assay, HCC-1143", "type": "cell-based", "settings": "Homo sapiens, HCC1143; HCC-1143, type BaA, 72 h", "procedure": "as §2"}, "[8]": {"test_system": "MCF10A", "test": "Cell proliferation assay, MCF10A", "type": "cell-based", "settings": "Homo sapiens, MCF-10A, type BaB, 72 h", "procedure": "as §2"}, "[9]": {"test_system": "MDA-MB-468", "test": "Cell proliferation assay, MDA-MB-468", "type": "cell-based", "settings": "Homo sapiens; MDA-MB-468, after 72 hours", "procedure": "as §2"}, "[10]": {"test_system": "MDA-MB-468 TNBC cells", "test": "Apoptosis marker immunoblot, MDA-MB-468", "type": "cell-based", "settings": "MDA-MB-468, 0 to 10 μM, 24 hours", "procedure": "as §3"}, "[11]": {"test_system": "MDA-MB-468 TNBC Basal A cells", "test": "Nuclear localization of FOXO3a and IκB, MDA-MB-468", "type": "cell-based", "settings": "MDA-MB-468, 1 μM, 24 hours", "procedure": "MDA-MB-468 TNBC Basal A and BT-20 TNBC Basal B cells were exposed to DMSO or 1 μM Compound 1-3 for 24 hours and then stained for FOXO3a or IκB with or without DAPI nuclear stain. The stained cells were examined for nuclear localization."}, "[12]": {"test_system": "HS578T", "test": "Cell proliferation assay, HS578T", "type": "cell-based", "settings": "Homo sapiens, Hs-578T, type BaB, 72 h", "procedure": "as §2"}, "[13]": {"test_system": "ZR7530", "test": "Cell proliferation assay, ZR7530", "type": "cell-based", "settings": "Homo sapiens, ZR-75-30; ZR7530, type Lu/HER+, 72 h", "procedure": "as §2"}, "[14]": {"test_system": "HCC-1428", "test": "Cell proliferation assay, HCC-1428", "type": "cell-based", "settings": "Homo sapiens, HCC1428; HCC-1428, type Lu, 72 h", "procedure": "as §2"}, "[15]": {"test_system": "HCC-1569", "test": "Cell proliferation assay, HCC-1569", "type": "cell-based", "settings": "Homo sapiens, HCC1569; HCC-1569, type BaA, 72 h", "procedure": "as §2"}, "[16]": {"test_system": "HS578T TNBC cells", "test": "Apoptosis marker immunoblot, HS578T", "type": "cell-based", "settings": "0 to 10 μM, 24 hours", "procedure": "as §3"}, "[17]": {"test_system": "obese (fa/fa) Zucker rats", "type": "in vivo", "procedure": "Male Zucker (fa/fa) rats and male Zucker lean rats (both from Charles River) at 10 weeks of age—a timepoint at which the Zucker fa/fa rats should show elevated food intake, body mass and elevated plasma lipid profile relative to their “lean” counterparts were singly housed in plastic bottomed cages and were given 14 days of habituation. During this period, animal body weight, food and water intakes were recorded daily. All animals were given ad-lib access to standard lab chow and water throughout the study. Once the 14 day baseline intake data were collected, the Zucker obese rats were assigned into treatment groups based on equivalent baseline data, i.e. all Zucker obese rats had equivalent daily food/water intakes and body weights. During this phase the rats also received two vehicle administrations as familiarisation to the dosing procedure. Immediately after the baseline phase, the treatment phase commenced. Test article and vehicle were administered at approximately 1 h prior to onset of the dark cycle. Dose scheduling varied according to group: 5× weekly dosing was Monday-Friday The study design was the following: Group A=Zucker lean male rats, vehicle treatment 5× week, oral, n=6, Group B=Zucker obese male rats, vehicle treatment 5× week, oral, n=6, Group C=Zucker obese male rats, I-4 2.5 mg/kg 5× week, oral, n=6.\nDaily body weight, food and water intake were measured at approximately the same time of the day. At day −1 and day 7 of treatment phase."}}, "note": "Counter-ions that a name gives are not always drawn."}
{"smiles": "O=C(/C=C\\n1cnc(-c2cc(C(F)(F)F)cc(C(F)(F)F)c2)n1)NNc1cnccn1", "note": "[Compound I-3, (Z)-3-(3-(3,5-bis(trifluoromethyl)phenyl)-1H-1,2,4-triazol-1-yl)-N′-(pyrazin-2-yl)acrylohydrazide]", "values": [{"measurement": "long-term growth", "setting": "[1]", "value": "inhibited the long-term growth"}, {"measurement": "IC50", "setting": "[2]", "value": 13, "unit": "nM"}, {"measurement": "apoptosis (PARP, caspase 3, cleaved PARP, cleaved caspase 3)", "setting": "[3]", "value": "induces apoptosis"}, {"measurement": "MCL-1 protein level", "setting": "[4]", "value": "a reduction in MCL-1 is observed"}, {"measurement": "IC50", "setting": "[5]", "value": 1300, "unit": "nM"}, {"measurement": "long-term growth", "setting": "[6]", "value": "inhibited the long-term growth"}, {"measurement": "IC50", "setting": "[7]", "value": 600, "unit": "nM"}, {"measurement": "IC50", "setting": "[8]", "value": 180, "unit": "nM"}, {"measurement": "IC50", "setting": "[9]", "value": 10, "unit": "nM"}, {"measurement": "apoptosis (PARP, caspase 3, cleaved PARP, cleaved caspase 3)", "setting": "[10]", "value": "induces apoptosis"}, {"measurement": "localization of FOXO3a and IκB", "setting": "[11]", "value": "both FOXO3a and IκB were localized in the cell nucleus"}, {"measurement": "IC50", "setting": "[12]", "value": 1500, "unit": "nM"}, {"measurement": "IC50", "setting": "[13]", "value": 19, "unit": "µM"}, {"measurement": "IC50", "setting": "[14]", "value": 10.4, "unit": "µM"}, {"measurement": "IC50", "setting": "[15]", "value": 960, "unit": "nM"}, {"measurement": "apoptosis (cleaved PARP, cleaved caspase 3)", "setting": "[16]", "value": "only a negligible increase in cleaved PARP and cleaved caspase 3"}]}
{"smiles": "O=C(/C=C\\n1cnc(-c2cc(C(F)(F)F)cc(C(F)(F)F)c2)n1)NNc1ccccn1", "note": "[Compound I-4, (Z)-3-(3-(3,5-bis(trifluoromethyl)phenyl)-1H-1,2,4-triazol-1-yl)-N′-(pyridin-2-yl)acrylohydrazide hydrochloride]", "values": [{"measurement": "mean and cumulative food intake", "setting": "[17]; 2.5 mg/kg 5× weekly, oral, obese (fa/fa) Zucker rats", "value": "reduced mean and cumulative food intake"}, {"measurement": "body weight gain", "setting": "[17]; 2.5 mg/kg 5× weekly, oral, compared to Zucker fa/fa controls", "value": "significantly reduced weight gain"}, {"measurement": "body weight gain after washout", "setting": "[17]; 2 day washout phase, compared to Zucker fa/fa controls", "value": "body weight gain still reduced"}]}
